Assay [1] has as its target T1, Sir2La (Lactobacillus acidophilus, UniProt Q5FMQ6).
T1 sequence (Q5FMQ6 1-239): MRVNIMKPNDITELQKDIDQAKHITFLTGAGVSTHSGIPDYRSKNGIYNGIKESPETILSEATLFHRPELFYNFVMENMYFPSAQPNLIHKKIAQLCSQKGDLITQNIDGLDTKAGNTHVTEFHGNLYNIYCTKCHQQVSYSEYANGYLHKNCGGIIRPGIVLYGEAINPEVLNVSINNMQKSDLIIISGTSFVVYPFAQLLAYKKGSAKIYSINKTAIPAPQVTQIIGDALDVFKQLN
In words: end-point fluorogenic deacylase assay. Type of assay: biochemical.

Assay [2] deals with T1, Sir2La. In words: biochemical. The note with it: 6 IC50 (µM), continuous, continuous assay.
Assay [3] concerns the target T1, Sir2La. In words: fluorogenic deacylase assay. The class given is biochemical. The note with it: read-out: % residual activity at 50 μM.

For orientation: IC50 means the concentration at which inhibition is half-maximal. Lower therefore signals greater potency. `Cc1ccc(C(=O)Nc2ccc(S(=O)(=O)O)c3cc(S(=O)(=O)O)cc(S(=O)(=O)O)c23)cc1NC(=O)c1cccc(NC(=O)Nc2cccc(C(=O)Nc3cc(C(=O)Nc4ccc(S(=O)(=O)O)c5cc(S(=O)(=O)O)cc(S(=O)(=O)O)c45)ccc3C)c2)c1` [suramin] came in with an IC50 in assay [1] of 100 ± 30 µM.

`CC(=S)NCCCC[C@H](NC(=O)OCc1ccccc1)C(=O)N[C@@H](Cc1c[nH]c2ccccc12)C(=O)NC(C)C` [compound 6, thioacetamide 6]: the concentration for half-maximal inhibition (IC50) in assay [2] (Ac-LGKac-AMC (2b)) is 5.8 ± 0.1 µM; in assay [2] (Ac-LGKpro-AMC (2c)) it was 12 µM; in assay [1], 15 ± 2 µM.

In assay [1], `NC(=O)c1cccnc1` [nicotinamide] displayed an IC50 of 350 ± 70 µM.

Take `CNC(=S)NCCCC[C@H](NC(=O)OCc1ccccc1)C(=O)N[C@@H](Cc1c[nH]c2ccccc12)C(=O)NC(C)C` [compound 7, thiourea 7]: the remaining activity at 50 µM in assay [3] stood at 77%.
